The record followed here is patent publication US4461895A, “Dibenzo(de,g)quinolines” (Warner-Lambert Company, priority 1981, dated 1984).

By LD50 is commonly meant the dose at which mortality reaches 50%. A lower LD50 goes with greater toxicity.

The subject of data set [1] is cats. Description: coughing experiment according to Domenjoz on cats (antitussive effect). Type of data set: in vivo. The source says: The new compounds thereby considerably exceed the known antitussive action of 5,6,6a,7-tetrahydro-1,2,9,10-tetramethoxy-5-methyl-4H-dibenzo(de,g)quinoline (glaucine) with regard to the strength and length of activity.
(§1) The following Table summarises some of the animal experimental results obtained: […]

A short description of data set [2]: toxicity in mice (LD50). The following applies: mouse, in vivo.
Text: as §1

Structures are written as SMILES.

For `C=CCN1CCc2cc(OC)c(OC)c3c2C1Cc1cc(OC)c(OC)cc1-3` (single isomer, unassigned; (+)) [Example 1, (+)-6-Allyl-5,6,6a,7-tetrahydro-1,2,9,10-tetramethoxy-4H-dibenzo(de,g)quinoline], the “antitussive effect: duration of cough inhibition” value stood at 20 min in data set [1] (1.0 mg./kg., i.v.); 90 min in data set [1] (6.25 mg./kg., id.); 40 min in data set [1] (6.25 mg./kg., sc.). Besides, the LD50 in data set [2] (iv) was 150 mg/kg; in data set [2] (po, ig.) it was ~1200 mg/kg; in data set [2] (sc.), 150 mg/kg.

Consider `COc1cc2c(cc1OC)-c1c(OC)c(OC)cc3c1C(C2)N(C)CC3` (stereo not drawn) [glaucine], for which the “antitussive effect: duration of cough inhibition” value in data set [1] (2.0 mg./kg., i.v.) was found to be 10 min; in data set [1] (4.0 mg./kg., id.), 40 min. Besides, the “antitussive effect: cough inhibition” value in data set [1] (10.0 mg./kg., sc., result in words) is “no cough”. Further, the LD50 in data set [2] (iv) was 58.3 mg/kg; in data set [2] (po, ig.) it was 531 mg/kg; in data set [2] (sc.), 20 mg/kg.
